Patent US12187742B2 (XRAD Therapeutics, Inc., priority 2018, dated 2025)
Counter-ions that a name gives are not always drawn.

What was measured:
ATM = ATM (Homo sapiens (Human), UniProt Q13315); test: ATM in Cell Western Assay (pKAP1 in etoposide-treated MCF-7 cells); type: cell-based
Summary of the method: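 After paraformaldehyde fixation and Triton X-100 permeabilization, immunostained plates were read by infrared scanning (ODYSSEY CLx). Compound was given as 10 doses, 3-fold dilutions from a 1 μM final top concentration.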

DNA-PK = DNA-PK (Homo sapiens (Human), UniProt P78527); test: DNA-PK Enzyme-Linked Immunosorbent Assay (phosphorylation of GST-p53 (1-101) peptide); type: biochemical; details: ELISA
Summary of the method: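 Inhibition measured by 450 nm absorbance after HRP/TMB detection of phospho-Ser15 on immobilized GST-p53 (1-101). The kinase reaction used 0.1 μg/mL DNA-PK and 20 μM ATP, 1 h at 25 °C. Ten 3-fold compound dilutions, top final concentration 100 nM.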

[1] = MCF-7 cells, etoposide 100 μM, 1 hr, pKAP1 readout
[2] = pKAP1 in etoposide-treated MCF-7 cells

Chain of ATM (Q13315 whole entry): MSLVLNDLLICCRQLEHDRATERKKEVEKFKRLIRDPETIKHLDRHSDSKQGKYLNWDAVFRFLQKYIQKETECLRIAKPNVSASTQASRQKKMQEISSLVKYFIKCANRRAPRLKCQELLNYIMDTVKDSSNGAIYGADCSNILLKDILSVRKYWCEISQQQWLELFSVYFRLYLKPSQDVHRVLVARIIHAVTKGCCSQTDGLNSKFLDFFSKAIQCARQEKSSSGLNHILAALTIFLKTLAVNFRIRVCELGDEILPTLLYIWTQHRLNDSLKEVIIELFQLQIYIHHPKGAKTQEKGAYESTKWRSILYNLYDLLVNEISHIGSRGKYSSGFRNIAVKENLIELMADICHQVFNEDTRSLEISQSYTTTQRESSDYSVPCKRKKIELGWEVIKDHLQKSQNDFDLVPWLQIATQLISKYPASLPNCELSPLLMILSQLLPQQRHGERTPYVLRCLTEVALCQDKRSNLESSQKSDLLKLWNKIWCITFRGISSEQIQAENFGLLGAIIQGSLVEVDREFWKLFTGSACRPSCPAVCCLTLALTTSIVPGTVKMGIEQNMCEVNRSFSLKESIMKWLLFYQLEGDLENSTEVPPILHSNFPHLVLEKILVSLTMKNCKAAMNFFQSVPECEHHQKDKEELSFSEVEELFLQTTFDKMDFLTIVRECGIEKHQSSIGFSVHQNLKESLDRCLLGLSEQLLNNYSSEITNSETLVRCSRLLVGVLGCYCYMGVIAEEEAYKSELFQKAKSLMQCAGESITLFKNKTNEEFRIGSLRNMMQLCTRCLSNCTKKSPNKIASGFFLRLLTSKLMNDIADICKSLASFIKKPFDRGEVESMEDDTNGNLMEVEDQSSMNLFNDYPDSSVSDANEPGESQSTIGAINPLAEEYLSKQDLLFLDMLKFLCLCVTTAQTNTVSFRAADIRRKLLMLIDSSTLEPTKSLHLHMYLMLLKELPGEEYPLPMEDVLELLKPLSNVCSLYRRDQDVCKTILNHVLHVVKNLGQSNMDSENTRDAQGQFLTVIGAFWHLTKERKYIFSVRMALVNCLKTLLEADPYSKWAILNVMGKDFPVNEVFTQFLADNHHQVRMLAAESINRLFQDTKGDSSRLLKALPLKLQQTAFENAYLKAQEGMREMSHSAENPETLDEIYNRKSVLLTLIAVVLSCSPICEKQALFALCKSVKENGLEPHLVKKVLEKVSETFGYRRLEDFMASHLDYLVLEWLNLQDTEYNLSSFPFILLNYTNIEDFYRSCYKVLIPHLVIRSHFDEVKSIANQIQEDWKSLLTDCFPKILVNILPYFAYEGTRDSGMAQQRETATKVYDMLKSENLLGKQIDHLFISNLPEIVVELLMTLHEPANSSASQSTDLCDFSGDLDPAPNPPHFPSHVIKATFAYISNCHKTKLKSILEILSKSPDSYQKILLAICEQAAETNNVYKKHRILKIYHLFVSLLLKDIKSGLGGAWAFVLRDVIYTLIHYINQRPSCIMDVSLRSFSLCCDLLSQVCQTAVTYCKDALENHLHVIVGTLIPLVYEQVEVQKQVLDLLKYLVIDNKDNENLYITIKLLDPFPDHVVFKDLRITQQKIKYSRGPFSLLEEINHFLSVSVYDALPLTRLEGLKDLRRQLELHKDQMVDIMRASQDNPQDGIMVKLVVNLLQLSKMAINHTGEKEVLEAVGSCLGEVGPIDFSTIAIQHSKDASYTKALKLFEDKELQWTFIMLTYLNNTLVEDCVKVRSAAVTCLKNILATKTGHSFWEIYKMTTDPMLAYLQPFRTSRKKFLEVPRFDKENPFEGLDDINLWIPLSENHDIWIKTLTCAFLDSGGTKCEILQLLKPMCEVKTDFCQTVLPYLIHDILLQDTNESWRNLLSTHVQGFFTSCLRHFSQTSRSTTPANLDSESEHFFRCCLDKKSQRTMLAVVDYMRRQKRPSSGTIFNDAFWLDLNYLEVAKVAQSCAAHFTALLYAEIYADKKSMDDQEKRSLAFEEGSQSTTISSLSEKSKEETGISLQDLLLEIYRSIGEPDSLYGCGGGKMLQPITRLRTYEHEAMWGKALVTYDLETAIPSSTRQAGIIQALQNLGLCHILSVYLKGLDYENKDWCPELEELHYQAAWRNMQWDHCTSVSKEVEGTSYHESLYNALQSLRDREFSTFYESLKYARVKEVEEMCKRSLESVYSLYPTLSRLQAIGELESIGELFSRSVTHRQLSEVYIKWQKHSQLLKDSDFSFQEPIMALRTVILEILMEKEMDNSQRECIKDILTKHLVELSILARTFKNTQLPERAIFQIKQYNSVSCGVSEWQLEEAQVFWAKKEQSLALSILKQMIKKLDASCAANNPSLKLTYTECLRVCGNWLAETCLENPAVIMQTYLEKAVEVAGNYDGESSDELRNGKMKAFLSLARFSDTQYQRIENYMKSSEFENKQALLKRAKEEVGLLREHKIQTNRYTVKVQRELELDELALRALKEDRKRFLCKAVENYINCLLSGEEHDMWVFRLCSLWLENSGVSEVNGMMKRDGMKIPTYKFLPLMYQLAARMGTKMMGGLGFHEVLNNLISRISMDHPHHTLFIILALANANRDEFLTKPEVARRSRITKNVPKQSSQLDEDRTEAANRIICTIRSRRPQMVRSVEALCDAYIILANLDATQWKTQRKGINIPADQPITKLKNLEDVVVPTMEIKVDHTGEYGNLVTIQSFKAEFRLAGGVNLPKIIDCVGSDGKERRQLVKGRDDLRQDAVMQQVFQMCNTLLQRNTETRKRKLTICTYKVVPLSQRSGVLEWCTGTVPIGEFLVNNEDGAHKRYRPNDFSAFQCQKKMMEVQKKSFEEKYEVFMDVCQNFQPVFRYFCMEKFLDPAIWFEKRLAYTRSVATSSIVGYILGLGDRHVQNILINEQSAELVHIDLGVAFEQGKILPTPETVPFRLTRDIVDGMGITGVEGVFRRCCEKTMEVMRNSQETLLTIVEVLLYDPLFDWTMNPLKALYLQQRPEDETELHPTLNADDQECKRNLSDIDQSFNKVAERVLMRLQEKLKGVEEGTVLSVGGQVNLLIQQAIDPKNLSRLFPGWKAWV

| SMILES | IC50 (ATM; [1]) | IC50 (DNA-PK; ATP 20 μM) | IC50 (ATM; [2]) | IC50 (DNA-PK; 20 μM ATP) |
| --- | --- | --- | --- | --- |
| CN(C)CCCOc1ncc(-c2ccc3ncc4c(c3c2)C2(CCC2)C(=O)N4C)cc1NS(=O)(=O)C1COC1 [Example 205, N-(2-(3-(Dimethylamino)propoxy)-5-(3′-methyl-2′-oxo-2′,3′-dihydrospiro[cyclobutane-1,1′-pyrrolo[2,3-c]quinolin]-8′-yl)pyridin-3-yl)oxetane-3-sulfonamide] | 1 to 100 nM | < 0.5 nM |  |  |
| CC(C)NCCOc1ncc(-c2cc3c4c(cnc3cc2F)N(C)C(=O)C42CCC2)cc1NS(=O)(=O)C(C)(C)C [Example 366, N-(5-(7′-Fluoro-3′-methyl-2′-oxo-2′,3′-dihydrospiro[cyclobutane-1,1′-pyrrolo[2,3-c]quinolin]-8′-yl)-2-(2-(isopropylamino)ethoxy)pyridin-3-yl)-2-methylpropane-2-sulfonamide] |  |  | 1 to 100 nM | 0.5 to 1 nM |
| CN(C)CCCOc1ncc(-c2ccc3ncc4c(c3c2)C2(CCC2)C(=O)N4C)cc1NS(=O)(=O)c1cc(F)cc(C(F)(F)F)c1 [Example 156, N-(2-(3-(Dimethylamino)propoxy)-5-(3′-methyl-2′-oxo-2′,3′-dihydrospiro[cyclobulane-1,1′-pyrrolo[2,3-c]quinolin]-8′-yl)pyridin-3-yl)-3-fluoro-5-(trifluoromethyl)benzenesulfonamide hydrochloride] | 1 to 100 nM | 1 to 100 nM |  |  |
| COCCN(CCOC)S(=O)(=O)Nc1cc(-c2ccc3ncc4c(c3c2)C2(CCC2)C(=O)N4C)cnc1OCCCN(C)C [Example 181, 8′-(5-{[Bis(2-methoxyethyl)sulfamoyl]amino}-6-[3-(dimethylamino)propoxy]pyridine-3-yl)-3′-methyl-2′,3′-dihydrospiro [cyclobutane-1,1′-pyrrolo[2,3-c]quinoline]-2′-one] | 1 to 100 nM | 1 to 100 nM |  |  |
| CN1C(=O)C2(CCC2)c2c1cnc1cc(F)c(-c3cnc(N4CC(N(C)C)C4)c(NS(C)(=O)=O)c3)cc21 [Example 317, N-(2-(3-(Dimethylamino)azetidin-1-yl)-5-(7′-fluoro-3′-methyl-2′-oxo-2′,3′-dihydrospiro[cyclobulane-1,1′-pyrrolo[2,3-c]quinolin]-8′-yl)pyridin-3-yl)methanesulfonamide hydrochloride] | 1 to 100 nM | 1 to 100 nM |  |  |
| CN1C(=O)C2(CCC2)c2c1cnc1ccc(-c3cnc(OCCCN4CCCCC4)c(NS(=O)(=O)c4cc(F)cc(Cl)c4)c3)cc21 [Example 196, 3-Chloro-5-fluoro-N-(5-(3′-methyl-2′-oxo-2′,3′-dihydrospiro[cyclobulane-1,1′-pyrrolo[2,3-c]quinolin]-8′-yl)-2-(3-(piperidin-1-yl)propoxy)pyridin-3-yl)benzenesulfonamide hydrochloride] | 1 to 100 nM | 1 to 100 nM |  |  |
| CN(C)CCCOc1ncc(-c2ccc3ncc4c(c3c2)C2(CC2)C(=O)N4C)cc1NS(=O)(=O)c1ccc(F)cc1 [Example 88, N-(2-(3-(Dimethylamino)propoxy)-5-(3′-methyl-2′-oxo-2′,3′-dihydrospiro [cyclopropane-1,1′-pyrrolo[2,3-c]quinolin]-8′-yl)pyridin-3-yl)-4-fluorobenzenesulfonamide] | 0.5 to 1 nM | < 0.5 nM |  |  |
| CN(C)CCCOc1ncc(-c2ccc3ncc4c(c3c2)C2(CC2)C(=O)N4C)cc1NS(=O)(=O)c1cccc(C(F)(F)F)c1 [Example 106, N-(2-(3-(Dimethylamino)propoxy)-5-(3′-methyl-2′-oxo-2′,3′-dihydrospiro [cyclopropane-1,1′-pyrrolo[2,3-c]quinolin]-8′-yl)pyridin-3-yl)-3-(trifluoromethyl)benzenesulfonamide] | 1 to 100 nM | < 0.5 nM |  |  |
| CN(C)CCCOc1ccc(-c2ccc3ncc4c(c3c2)C2(CC2)C(=O)N4C)cc1NS(=O)(=O)c1cccc(Cl)c1 [Example 98, 3-Chloro-N-(2-(3-(dimethylamino)propoxy)-5-(3′-methyl-2′-oxo-2′,3′-dihydrospiro[cyclopropane-1,1′-pyrrolo[2,3-c]quinolin]-8′-yl)phenyl) benzenesulfonamide] | 1 to 100 nM | 1 to 100 nM |  |  |
| CN1C(=O)C2(CCC2)c2c1cnc1ccc(-c3cnc(OCCCN4CCCC(F)C4)c(NS(C)(=O)=O)c3)cc21 (stereo not shown) [Example 282, N-(2-(3-(3-Fluoropiperidin-1-yl)propoxy)-5-(3′-methyl-2′-oxo-2′,3′-dihydrospiro[cyclobutane-1,1′-pyrrolo[2,3-c]quinolin]-8′-yl)pyridin-3-yl)methanesulfonamide] | 1 to 100 nM | < 0.5 nM |  |  |
| COc1ccc([C@H]2C[C@@]3(C2)C(=O)N(C)c2cnc4cc(F)c(-c5cnc(OCCNC(C)C)c(NS(C)(=O)=O)c5)cc4c23)cc1 [Example 421, hydrochloride] |  |  | > 100 nM | 1 to 100 nM |
| CC(C)NCCOc1ncc(-c2cc3c4c(cnc3cc2F)N(C)C(=O)C42CN(c3ccc(F)cc3)C2)cc1NS(C)(=O)=O [Example 538, N-(5-(7′-Fluoro-1-(4-fluorophenyl)-3′-methyl-2′-oxo-2′,3′-dihydrospiro [azetidine-3,1′-pyrrolo[2,3-c]quinolin]-8′-yl)-2-(2-(isopropylamino)ethoxy)pyridin-3-yl)methanesulfonamide hydrochloride] |  |  | 1 to 100 nM | 1 to 100 nM |
| CCNC1CN(c2ncc(-c3cc4c5c(cnc4cc3F)N(C)C(=O)C53CCC3)cc2NS(C)(=O)=O)C1 [Example 331, N-(2-(3-(Ethylamino)azetidin-1-yl)-5-(7′-fluoro-3′-methyl-2′-oxo-2′,3′-dihydrospiro [cyclobutane-1,1′-pyrrolo [2,3-c]quinolin]-8′-yl)pyridin-3-yl)methanesulfonamide] | 1 to 100 nM | 0.5 to 1 nM |  |  |
| CN1C(=O)C2(CC2)c2c1cnc1ccc(-c3cnc4ncccc4c3)cc21 [Example 62, 3′-Methyl-8′-(1,8-naphthyridin-3-yl)spiro[cyclopropane-1,1′-pyrrolo[2,3-c]quinolin]-2′(3′-H)-one] | 1 to 100 nM | 1 to 100 nM |  |  |
| CN(C)CCCOc1ncc(-c2ccc3ncc4c(c3c2)C2(CC2)C(=O)N4C)cc1NS(=O)(=O)Cc1ccccc1 [Example 103, N-(2-(3-(Dimethylamino)propoxy)-5-(3′-methyl-2′-oxo-2′,3′-dihydrospiro [cyclopropane-1,1′-pyrrolo[2,3-c]quinolin]-8′-yl)pyridin-3-yl)-1-phenylmethanesulfonamide] | 1 to 100 nM | 1 to 100 nM |  |  |
| CC1CCCN(S(=O)(=O)Nc2cc(-c3ccc4ncc5c(c4c3)C3(CCC3)C(=O)N5C)cnc2OCCCN(C)C)C1 (stereo not shown) [Example 175, N-(2-(3-(Dimethylamino)propoxy)-5-(3′-methyl-2′-oxo-2′,3′-dihydrospiro [cyclobutane-1,1′-pyrrolo[2,3-c]quinolin]-8′-yl)pyridin-3-yl)-3-methylpiperidine-1-sulfonamide] | 1 to 100 nM | 1 to 100 nM |  |  |
| CN(C)CCCOc1ncc(-c2ccc3ncc4c(c3c2)C2(CC2)C(=O)N4C)cc1NS(=O)(=O)c1ccsc1 [Example 92, N-(2-(3-(Dimethylamino)propoxy)-5-(3′-methyl-2′-oxo-2′,3′-dihydrospiro [cyclopropane-1,1′-pyrrolo[2,3-c]quinolin]-8′-yl)pyridin-3-yl)thiophene-3-sulfonamide] | 0.5 to 1 nM | < 0.5 nM |  |  |
| CC(C)NCCOc1ncc(-c2cc3c(cc2F)ncc2c3[C@]3(C[C@@H](c4cccc(F)c4)C3)C(=O)N2C)cc1NS(C)(=O)=O [Example 425, trans-N-(5-(7′-Fluoro-3-(3-fluorophenyl)-3′-methyl-2′-oxo-2′,3′-dihydrospiro[cyclobutane-1,1′-pyrrolo[2,3-c]quinolin]-8′-yl)-2-(2-(isopropylamino)ethoxy)pyridin-3-yl)methanesulfonamide] |  |  | > 100 nM | 1 to 100 nM |
| CO[C@H]1C[C@]2(C1)C(=O)N(C)c1cnc3cc(F)c(-c4cnc(OCCNC(C)C)c(NS(C)(=O)=O)c4)cc3c12 [Example 385, cis-N-(5-(7′-Fluoro-3-methoxy-3′-methyl-2′-oxo-2′,3′-dihydrospiro[cyclobutane-1,1′-pyrrolo[2,3-c]quinolin]-8′-yl)-2-(2-(isopropylamino)ethoxy)pyridin-3-yl)methanesulfonamide] |  |  | 1 to 100 nM | < 0.5 nM |
| CN(C)CCCOc1ncc(-c2ccc3ncc4c(c3c2)C2(CCC2)C(=O)N4C)cc1NS(=O)(=O)c1cnn(C)c1 [Example 166, N-(2-(3-(Dimethylamino)propoxy)-5-(3′-methyl-2′-oxo-2′,3′-dihydrospiro [cyclobutane-1,1′-pyrrolo [2,3-c]quinolin]-8′-yl)pyridin-3-yl)-1-methyl-1H-pyrazole-4-sulfonamide hydrochloride] | 1 to 100 nM | 1 to 100 nM |  |  |
| CN(C)CCCOc1ncc(-c2ccc3ncc4c(c3c2)C2(COC2)C(=O)N4C)cc1NS(=O)(=O)C1CC1 [Example 47, N-(2-(3-(Dimethylamino)propoxy)-5-(3′-methyl-2′-oxo-2′,3′-dihydrospiro [oxetane-3,1′-pyrrolo[2,3-c]quinolin]-8′-yl)pyridin-3-yl)cyclopropanesulfonamide] | 1 to 100 nM | 1 to 100 nM |  |  |
| COc1ncc(-c2ccc3ncc4c(c3c2)C2(CC2)C(=O)N4CC#N)cc1NS(=O)(=O)c1ccccc1 [Example 21, N-(5-(3′-(Cyanomethyl)-2′-oxo-2′,3′-dihydrospiro[cyclopropane-1,1′-pyrrolo[2,3-c]quinolin]-8′-yl)-2-methoxypyridin-3-yl)benzenesulfonamide] | 1 to 100 nM | < 0.5 nM |  |  |
| CN1C(=O)C2(CC2)c2c1cnc1ccc(-c3cnc(N)nc3)cc21 [Example 48, 8′-(2-Aminopyrimidin-5-yl)-3′-methylspiro [cyclopropane-1,1′-pyrrolo [2,3-c]quinolin]-2′(3′-H)-one] | 1 to 100 nM | 0.5 to 1 nM |  |  |
